Measurements reported in US20130165368A1, “ANTIMICROBIAL COMPOUNDS” (priority 2010, published 2013).
Values after ≈ are worked out from the molar mass of the structure shown. Like-named read-outs stand apart in the source and are kept apart here. Each block holds one molecule with its values, some of them ahead of it.

Assays:
Klebsiella pneumoniae = assay: MIC agar dilution, micro-organism 2 (9528); format: cell-based; conditions: Klebsiella pneumoniae 9528
Method: (§1) Throughout the period of testing the microbial strains were subcultured and incubated for 18-20 hours at 37° C. on a weekly basis. Horse blood agar plates were used to sustain the micro-organisms both prior to and throughout testing. The alkoxylated alkanols listed in Table II below were obtained (these are obtainable from Sigma-Aldrich Company Ltd, Dorset, England), each having a GC purity of at least 97%.
(§2) Molar equivalent concentrations were used to allow comparison between compounds of differing molecular mass. Due to weighing difficulties, any compound in solid form was melted in a water bath prior to dilution. To make ten-times strength concentrations, which takes into account agar dilution, 0.0352 mmol of each compound was weighed into plastic universal bottles and 4 mL of sterile distilled water (SDW) was added. To produce a homogenous emulsion the universals were vortexed; once achieved the emulsions were serial diluted by adding 2 mL to 2 mL of SDW.
(§3) Myristyl alcohol and lauryl alcohol were re-weighed and dissolved in 25 μL of the polar solvent 1-methyl-2-pyrrolidone (M6762; Sigma-Aldrich) in sterile glass universals due to an inability to achieve an even suspension. To maintain an even emulsion in the presence of SDW 37.5 μL of the non-ionic detergent Tween 20 (P1379, Sigma-Aldrich) was also added. 3.9375 mL of SDW was added to these, to create a 4 mL volume; they were vortexed and diluted as before.
(§4) For every 100 mL of Isosensitest agar (IST) (CM0471; Oxoid, Basingstoke, England), 3.1 g of the IST powder was added to 100 mL SDW (as per manufacturer's instructions) and sterilised for 15 minutes at 121° C. Once sterilised, the molten agar was cooled to 50° C. in a water-bath. Subsequently 4.8 g of CCEY powder (BC2160; Bioconnections, Wetherby, England), also known as Brazier's medium, was added to 100 mL SDW for every 100 mL of agar needed. This was then sterilised for 15 minutes at 121° C. Once sterilised the molten agar was cooled to 50° C. in a water-bath and 4 mL of egg-yolk emulsion (S2073; TCS Biosciences Ltd, Buckingham, United Kingdom) and 1 mL of lysed defibrinated horse blood (HB035; TCS Biosciences Ltd, Buckingham, United Kingdom) were also added for every 100 mL needed. Horse blood lysis is achieved by dilution to half concentration with SDW; when fully lysed the mixture will turn dark red in colour.
(§5) 18 mL agar was added to each universal and then poured into sterile Petri dishes. This step creates a 1/10 dilution resulting in agar plates of the required strength. Control plates for each set of strains were created by adding 18 mL of agar to 2 mL of SDW.
(§6) Suspensions of each bacterial species were prepared with a density equal to that of a 0.5 McFarland standard using a densitometer. All suspensions were made using sterile distilled water and fresh 18-20 hour cultures. As a 0.5 McFarland standard contains 1.5×10^8 CFU/mL and the multipoint inoculators applies 1 μL spots of liquid, each bacterial suspension was diluted 1/15 (20 μL suspension to 280 μL sterile distilled water).
(§7) Bacterial suspensions were prepared from fresh 18-24 hour cultures as previously described. 1 μL of each strain was inoculated onto all 100 agar plates containing a different chemical concentration and the 2 control plates. This was done using a multipoint inoculator which inoculates 20 strains per plate. All plates were incubated for 22 hours at 37° C. in aerobic conditions.
(§8) Each plate was examined for bacterial growth after 22 and 48 hours, with each being incubated in between examinations. A positive result was recorded as growth of ≧10 colonies. A negative result was recorded as growth of <10 colonies as this is equivalent to 99.9% inhibition. The lowest concentration of chemical that inhibited growth was recorded as the MIC. The results are recorded in Table IV below, where the numbers are quoted in mmol/L.
(§9) Further experiments have also been conducted to determine the MIC of a number of other compositions as follows. […]

Enterobacter cloacae = assay: MIC agar dilution, micro-organism 4 (11936); format: cell-based; conditions: Enterobacter cloacae 11936
Method: as §1, §2, §3, §4, §5, §6, §7, §8, §9

Serratia marcescens = assay: MIC agar dilution, micro-organism 5 (10211); format: cell-based; conditions: Serratia marcescens 10211
Method: as §1, §2, §3, §4, §5, §6, §7, §8, §9

Salmonella typhimurium = assay: MIC agar dilution, micro-organism 6 (74); format: cell-based; conditions: Salmonella typhimurium 74
Method: as §1, §2, §3, §4, §5, §6, §7, §8, §9

Yersinia enterocolitica = assay: MIC agar dilution, micro-organism 8 (11176); format: cell-based; conditions: Yersinia enterocolitica 11176
Method: as §1, §2, §3, §4, §5, §6, §7, §8, §9

Burkholderia cepacia = assay: MIC agar dilution, micro-organism 9 (1222); format: cell-based; conditions: Burkholderia cepacia 1222
Method: as §1, §2, §3, §4, §5, §6, §7, §8, §9

Acinetobacter baumannii = assay: MIC agar dilution, micro-organism 10 (19606); format: cell-based; conditions: Acinetobacter baumannii 19606
Method: as §1, §2, §3, §4, §5, §6, §7, §8, §9

Gram-negative species = assay: Additional antibacterial data, MIC (Table XII); format: cell-based; conditions: 24 hrs at 37° C.; for MIC (%) volume/volume: inoculum 10000 cfu/spot
Method: (§10) Using the protocols outlined in the example above, the inventors further investigated the antibacterial effects of representative alkoxylated alkanol compounds. The inoculum was 10000 cfu/spot; inclubation was for 24 hrs at 37° C.

[1] = system: Stenotrophomonas maltophilia; assay: Additional antibacterial data, MIC (Table XII); format: cell-based; conditions: 24 hrs at 37° C.; for MIC (%) volume/volume: Stenotrophomonas maltophilia 10257, inoculum 10000 cfu/spot
Method: as §10

MRSA NCTC 11939 = assay: Synergy testing: disc susceptibility, zone of inhibition on agar containing Laureth derivative; format: cell-based, Staphylococcus aureus; conditions: MRSA NCTC 11939, disc test
Method: There now follows data relating to a screen for synergistic interaction between Laureth derivatives [C12E1 to C12E8] and 12 conventional anti-staphylococcal agents.
Ethoxylated Lauryl Alcohol Derivative Preparation As plates containing quarter strength of the MIC of NCTC 11939 are needed, and therefore very small weights of each compound, they were prepared at twenty time strength in 20 mL volumes in plastic universals. Once prepared these solutions were diluted […] by adding 1 mL to 1 mL SDW, resulting a 2 mL volume at ten times strength. This was undertaken in duplicate to create two identical plates.
IST was prepared as previously stated in above. 18 mL agar was added to each universal and then poured into sterile Petri dishes. Control plates were prepared as stated above
A 0.5 McFarland suspension of MRSA NCTC 11939 was prepared using SDW. This was then adjusted to a concentration of 1.5×107 by adding 200 μL to 1.8 mL of SDW. Once diluted, a sterile cotton swab was used to spread the suspension evenly across the entire surface of each agar plate.
Twelve antibiotics discs were added to the plates, 6 per plate in a circle. The plates were then incubated aerobically at 37° C.
The diameter of the zones of clearance were measured and recorded in millimetres. The zones for each compound were compared to the control and to BSAC breakpoints.
A variation of zone size within 2 mm is within acceptable limits of assay reproducibility.

MIC (Klebsiella pneumoniae; 22 hrs, read-out: MIC): 880 µM (≈ 213 µg/mL)
MIC (Klebsiella pneumoniae; 48 hrs, read-out: MIC): 880 µM (≈ 213 µg/mL)
MIC (Enterobacter cloacae; 22 hrs, read-out: MIC): > 880 µM
MIC (Enterobacter cloacae; 48 hrs, read-out: MIC): > 880 µM
MIC (Serratia marcescens; 22 hrs, read-out: MIC): > 880 µM
MIC (Serratia marcescens; 48 hrs, read-out: MIC): > 880 µM
MIC (Salmonella typhimurium; Salmonella enterica, 22 hrs, read-out: MIC): 880 µM (≈ 213 µg/mL)
MIC (Salmonella typhimurium; Salmonella enterica, 48 hrs, read-out: MIC): 880 µM (≈ 213 µg/mL)
MIC (Yersinia enterocolitica; 22 hrs, read-out: MIC): > 880 µM
MIC (Yersinia enterocolitica; 48 hrs, read-out: MIC): > 880 µM
MIC (Burkholderia cepacia; 22 hrs, read-out: MIC): > 880 µM
MIC (Burkholderia cepacia; 48 hrs, read-out: MIC): > 880 µM
MIC (Acinetobacter baumannii; 22 hrs, read-out: MIC): > 880 µM
MIC (Acinetobacter baumannii; 48 hrs, read-out: MIC): > 880 µM
SMILES: CCCCCCCCCCCCCCCCO [C0, 1-Hexadecanol, reference compound]

SMILES: CCCCCCCCCCCCCOCCOCCOCCOCCOCCOCCO [C13E6, polyoxyethylene (6) tridecyl alcohol]
MIC (Klebsiella pneumoniae; 22 hrs): >880 µM
MIC (Klebsiella pneumoniae; 48 hrs): >880 µM
MIC (Enterobacter cloacae; 22 hrs): >880 µM
MIC (Enterobacter cloacae; 48 hrs): >880 µM
MIC (Serratia marcescens; 22 hrs): >880 µM
MIC (Serratia marcescens; 48 hrs): >880 µM
MIC (Salmonella typhimurium; 22 hrs): >880 µM
MIC (Salmonella typhimurium; 48 hrs): >880 µM
MIC (Yersinia enterocolitica; 22 hrs): >880 µM
MIC (Yersinia enterocolitica; 48 hrs): >880 µM
MIC (Burkholderia cepacia; 22 hrs): >880 µM
MIC (Burkholderia cepacia; 48 hrs): >880 µM
MIC (Acinetobacter baumannii; 22 hrs): >880 µM
MIC (Acinetobacter baumannii; 48 hrs): >880 µM

SMILES: CCCCCCCCCCCCOCCO [L1, Ethylene Glycol Monododecyl Ether]
MIC (%) volume/volume (Gram-negative species; Acinetobacter baumannii 19606): 1 % volume/volume
MIC (%) volume/volume (Gram-negative species; Escherichia coli 10418): 0.25 % volume/volume
MIC (%) volume/volume (Gram-negative species; Klebsiella pneumoniae 9528): 0.5 % volume/volume
activity against selected Gram-negative species (Gram-negative species; at higher concentrations, 10000 cfu/spot): shows activity
MIC (%) volume/volume [1]: 0.5 % volume/volume

SMILES: CCCCCCCCCCCCOCCOCCOCCOCCO [L4, Tetraethylene Glycol Monododecyl Ether]
MIC (%) volume/volume (Gram-negative species; Acinetobacter baumannii 19606): >4 % volume/volume
MIC (%) volume/volume (Gram-negative species; Escherichia coli 10418): >4 % volume/volume
MIC (%) volume/volume (Gram-negative species; Klebsiella pneumoniae 9528): >4 % volume/volume
MIC (%) volume/volume [1]: 0.06 % volume/volume
susceptibility of Stenotrophomonas maltophilia ([1]; relatively low concentrations, 10000 cfu/spot): susceptible

SMILES: CCCCCCCCCCCCOCCOCCOCCOCCOCCOCCOCCOCCO [L8, Octaethylene Glycol Monododecyl Ether]
susceptibility to various other agents in the presence of Laureth derivative (MRSA NCTC 11939): slight increase in susceptibility
